Data as given in paper PMC9481608, “Synthesis of natural product hybrids by the Ugi reaction in complex media containing plant extracts” (Scientific Reports, 2022).

The compounds below were run against T1, α-chymotrypsin (bovine pancreatic) (Bos taurus, UniProt P00766) (assay: chromogenic protease inhibition assay, absorbance at […] nm). Settings: 100 μM SAAPFpNA, 6 nM enzyme, 80 mM Tris-HCl pH 7.8, 10 mM CaCl2, 25 °C, 30 min preincubation, 3% DMSO.
T1 construct: native enzyme from bovine pancreas, commercial, used as received
Format: biochemical

SMILES	% Inhibition (10 μM)^a
CC(C)=C1C[C@@H]2[C@@H](CCC(C)(C(=O)NC3CCCCC3)N(Cc3ccccc3)C(=O)CCl)[C@]2(C)CC1=O (mixture of isomers) [compound 4, Ugi adduct 4]	3.1 ± 0.9%
CC(=O)N(Cc1ccccc1)C(C)(CC[C@@H]1[C@H]2CC(=C(C)C)C(=O)C[C@@]12C)C(=O)NC1CCCCC1 (mixture of isomers) [compound 5, Ugi adduct 5]	4.2 ± 1.7%
CC(=O)N(Cc1ccccc1)C(CC(C)CCC=C(C)C)C(=O)NCS(=O)(=O)c1ccc(C)cc1 (racemic) [compound 2, Ugi adduct 2]	9.2 ± 1.6%

What follows are compounds tested against T1, α-chymotrypsin (bovine pancreatic) (assay: biochemical). Settings: not given.
Set-up: alpha-chymotrypsin inhibition, SAAPFpNA (100 uM) hydrolysis, absorbance at 410 nm, 25 °C, pH 7.8
Description: Bovine pancreatic α-chymotrypsin was purchased from Sigma-Aldrich (C4129) and used as received. Enzyme solutions were kept on ice during the experiments. The molecular mass of α-chymotrypsin was taken as 25 kDa. N-Succinyl-L-alanine-L-alanine-L-proline-L-phenylalanine-p-nitroanilide (SAAPFpNA) was purchased from Sigma-Aldrich (S7388), prepared as a 10 mM stock solution in DMSO, and stored at − 30 °C. A microbial chymostatin, a mixture of chymostatin A–C, was purchased from Peptide Institute (4063) and used as a positive control. DMSO for biochemical research was purchased from Nacalai and used as received. Other reagents were purchased from Nacalai and used as received. The concentration–response curves were plotted and IC50 values were calculated by GraphPad Prism 8 software using a sigmoidal concentration–response curve analysis with variable slope. Absorbance was measured with a JASCO V-660 spectrometer at 25 °C. According to the reported procedure, the assay was performed in Tris–HCl buffer (80 mM, pH 7.8) containing α-chymotrypsin (6 nM, final concentration) and CaCl2 (10 mM, final concentration). After 30 min of incubation with the test compound at 25 °C, the enzymatic reaction was initiated by adding SAAPFpNA (100 μM, final concentration) to give a final volume of 700 μL. Reaction progress was monitored by absorbance at 410 nm at 25 °C for 5 min. The final concentration of DMSO was 3% (v/v). The prepared Ugi adducts have a diamide motif and were therefore subjected to a protease inhibition assay. Protease inhibitors have received increasing attention for their therapeutic potential against respiratory virus infections including severe acute respiratory syndrome coronavirus 2 (SARS-CoV-2)[34],[35]. The inhibitory activity of the Ugi adducts was determined in the presence of 6 nM α-chymotrypsin and 100 μM succinyl-Ala-Ala-Pro-Phe-p-nitroanilide[36]. […] Thus, the proposed engineering method, although preliminary, can be used to create novel candidates for α-chymotrypsin inhibitors. Further structural optimization, such as removal of the benzyl group on the amide nitrogen, construction of a dipeptide motif, and installation of an aromatic amino acid residue at the C-terminal of dipeptides[37] will improve the inhibitory activities of the Ugi adducts and will be reported in due course. The molecular weights of the synthesized plant product-like molecules were in the range of 492.70–1011.57 g mol^−1, which corresponds to the category of beyond the rule of five (bRo5)[38], or middle-molecules. Therefore, the present chemical hybridization method could be used to construct a small library of middle-molecules mimicking natural products, which is useful for the discovery of peptidic modulators of protein–protein interactions. Ongoing biological evaluations of the present molecules will unveil their specific pharmaceutical potential.

SMILES	inhibition at 10 µM	IC50
CC1=C(C(C(=O)NC2CCCCC2)N(Cc2ccccc2)C(=O)CCl)C(C)(C)CCC1 (stereo not shown) [1d, N-Benzyl-2-chloro-N-(2-(cyclohexylamino)-2-oxo-1-(2,6,6-trimethylcyclohex-1-en-1-yl)ethyl)acetamide]	8.9 ± 2.1%	
O=C(NC1CCCCC1)C(c1ccccc1)N(Cc1ccccc1)C(=O)CCl (stereo not shown) [1b, N-Benzyl-2-chloro-N-(2-(cyclohexylamino)-2-oxo-1-phenylethyl)acetamide]	9.2 ± 2%	
O=C(NC1CCCCC1)C(c1ccccc1)N(C(=O)CCl)c1ccc2ccc3cccc4ccc1c2c34 (stereo not shown) [1g, 2-Chloro-N-(2-(cyclohexylamino)-2-oxo-1-phenylethyl)-N-(pyren-1-yl)acetamide]	83.7 ± 1.8%	4.5 ± 0.3 µM
O=C(CCl)N(Cc1ccccc1)C1(C(=O)NC2CCCCC2)CCCC1 [1e, 1-(N-Benzyl-2-chloroacetamido)-N-cyclohexylcyclopentane-1-carboxamide]	0.2 ± 0.8%	
CC(C)C(C(=O)NC1CCCCC1)N(Cc1ccccc1)C(=O)CCl (stereo not shown) [1c, 2-(N-Benzyl-2-chloroacetamido)-N-cyclohexyl-3-methylbutanamide]	4.4 ± 2%	
CC(=O)N(Cc1ccccc1)C(C(=O)NC1CCCCC1)c1ccccc1 (stereo not shown) [1h, 2-(N-Benzylacetamido)-N-cyclohexyl-2-phenylacetamide]	2.4 ± 1.6%	
Cc1ccc(S(=O)(=O)CNC(=O)C(c2ccccc2)N(Cc2ccccc2)C(=O)CCl)cc1 (stereo not shown) [1a, N-Benzyl-2-chloro-N-(2-oxo-1-phenyl-2-((tosylmethyl)amino)ethyl)acetamide]	4.7 ± 1.1%	
Cc1ccc(S(=O)(=O)CNC(=O)C2(N(Cc3ccccc3)C(=O)CCl)CCCC2)cc1 [1f, 1-(N-Benzyl-2-chloroacetamido)-N-(tosylmethyl)cyclopentane-1-carboxamide]	7.1 ± 1%	
O=C(NC1CCCCC1)C(c1ccccc1)N(Cc1ccccc1)C(=O)C1CCCCC1 (stereo not shown) [1i, N-Benzyl-N-(2-(cyclohexylamino)-2-oxo-1-phenylethyl)cyclohexanecarboxamide]	3.8 ± 0.4%	
CC(C)=CCCC(C)CC(C(=O)NC1CCCCC1)N(Cc1ccccc1)C(=O)CC[C@@H](C)[C@H]1CC[C@H]2[C@@H]3[C@@H](O)C[C@@H]4C[C@H](O)CC[C@]4(C)[C@H]3CC[C@]12C (stereo partly drawn) [1j, 2-((R)-N-Benzyl-4-((3R,5S,7S,8R,9S,10S,13R,14S,17R)-3,7-dihydroxy-10,13-dimethylhexadecahydro-1H-cyclopenta[a]phenanthren-17-yl)pentanamido)-N-cyclohexyl-4,8-dimethylnon-7-enamide]	62.3 ± 0.2%	9.2 ± 0.8 µM

Same assay, conditions: read-out: % Inhibition (10 μM)

SMILES	inhibition at 10 µM
CC(=O)CC[C@@H]1[C@H]2CC(=C(C)C)C(=O)C[C@@]12C [Curcumenone (6)]	7.8 ± 1.2%
NCc1ccccc1 [Benzylamine]	7 ± 1.4%
[C-]#[N+]CS(=O)(=O)c1ccc(C)cc1 [TosMIC]	0.5 ± 0.5%
CCCCCC[C@@H](O)C/C=C\CCCCCCCC(=O)O [(R)-Ricinoleic acid]	3 ± 0.9%
Nc1ccc2ccc3cccc4ccc1c2c34 [1-Aminopyrene]	5.6 ± 1%

What follows are compounds tested against T1, α-chymotrypsin (bovine pancreatic) (assay: chromogenic protease inhibition assay, absorbance at […] nm). Settings: not given.
Format: biochemical

SMILES	IC50
CCCCCC[C@@H](O)C/C=C\CCCCCCCC(=O)N(Cc1ccccc1)C(C)(CC[C@@H]1[C@H]2CC(=C(C)C)C(=O)C[C@@]12C)C(=O)NC1CCCCC1 (mixture of isomers) [compound 10, Ugi adduct 10]	7.7 ± 0.6 µM
CCCCCC[C@@H](O)C/C=C\CCCCCCCC(=O)N(Cc1ccccc1)C(C(=O)NC1CCCCC1)c1ccccc1 (stereo partly shown) [compound 9, Ugi adduct 9]	7.9 ± 0.5 µM
CCCCCC[C@@H](O)C/C=C\CCCCCCCC(=O)O[C@@H](C/C=C\CCCCCCCC(=O)N(Cc1ccccc1)C(CC(C)CCC=C(C)C)C(=O)NC1CCCCC1)CCCCCC (stereo partly shown) [8b, Ugi adduct 8b]	13.4 ± 1.3 µM
CC(C)=C1C[C@@H]2[C@@H](CCC(C)(C(=O)NC3CCCCC3)N(C(=O)CCl)c3ccc4ccc5cccc6ccc3c4c56)[C@]2(C)CC1=O (stereo partly shown) [compound 7, Ugi adduct 7]	3.1 ± 0.1 µM
CCCCCC[C@@H](O)C/C=C\CCCCCCCC(=O)N(Cc1ccccc1)C(CC(C)CCC=C(C)C)C(=O)NC1CCCCC1 (stereo partly shown) [8a, Ugi adduct 8a]	7.3 ± 0.6 µM
